A short description of one data set: in vitro. The note with it: human.
Data set [1] concerns Plasmodium falciparum Dd2 asexual blood stage parasites. Kind of data set: microbe, parasite or virus in culture. Further details: species or system Plasmodium falciparum Dd2 in human erythrocytes; single determination (one 11-point concentration-response curve). The note with it: Plasmodium falciparum, DD2, Erythrocyte, 72 h.
Setting [2] is: HepG2-A16-CD81EGFP cells, uninfected.

Where two headings read alike, the source gives them in different places.

Consider 24 compounds from publication PMC7822874, “Chemoprotective antimalarials identified through quantitative high-throughput screening of Plasmodium blood and liver stage parasites” (Scientific Reports, 2021).

For orientation: viability means a read-out of living cells in per cent, often relative to untreated cells. In general, AC50 refers to the concentration at which the activity in the assay is half-maximal.

In the case of `CCN(CC)CCC(c1ccc2c(c1)OCO2)c1c(O)cc(OC)cc1OC` (stereo not drawn) [MLS000879498-01], the viability at 66 h in “in vitro” (setting [2]) was determined as 103%. Moreover, in data set [1] (read-out: AC50), the AC50 came to 4220 nM.

With `CCCN1CCc2c(sc3nc(SC)n(-c4ccccc4)c(=O)c23)C1` [MLS001173550-01], in “in vitro” (setting [2]), the viability at 48 h, 1 µM was 112% and the viability at 48 h, 3 µM is 101%. For the same compound, the AC50 in data set [1] (read-out: AC50) is 2660 nM.

As to `CC(C)Oc1ccc(C(CCNCc2ccc(O)cc2)c2ccccc2)cc1` (stereo not drawn) [MLS001164341-01], the viability at 66 h in the data set “in vitro” (setting [2]) was found to be 102%. Further, the AC50 in data set [1] (read-out: AC50) came out at 668 nM.

`CCCCNc1nc2sc3c(c2c(=O)n1-c1cccc(Cl)c1)CCN(C)C3` [MLS000762857-01]: in the data set “in vitro” (setting [2]), the viability at 48 h is 106% and the viability at 48 h, 1 µM is 106%. The AC50 in data set [1] (read-out: AC50) is 9440 nM.

For the compound `Oc1ccccc1CN1CCCC(N2CCN(c3cccc(C(F)(F)F)c3)CC2)C1` (stereo not drawn) [MLS000998830-01], in the data set “in vitro” (setting [2]), the viability at 48 h, 1 µM came out at 103% and the viability at 48 h, 3 µM came to 105%. In addition, in data set [1] (read-out: AC50), the half-maximal activity concentration (AC50) was 1330 nM.

On to `CCOC(=O)c1cnc2ccc(OC)cc2c1Nc1ccc(N2CCN(C)CC2)cc1` [MLS001164177-01], for which, in the data set “in vitro” (setting [2]), the viability at 48 h, 1 µM worked out at 98% and the viability at 48 h, 3 µM was 94%. The AC50 in data set [1] (read-out: AC50) is 1680 nM.

On to `COc1ccc(CNCC(O)(c2ccc(Cl)cc2)c2ccc(Cl)cc2)cc1` [MLS000325709-01], for which, in “in vitro” (setting [2]), the viability at 48 h, 1 µM stood at 98% and the viability at 48 h, 3 µM stood at 96%. Also, the AC50 in data set [1] (read-out: AC50) stood at 1500 nM.

Regarding `CCN(CC)CCN1C(=O)c2ccccc2NC1c1ccc(C)cc1` (stereo not drawn) [MLS000558946-01], in “in vitro” (setting [2]), the viability at 48 h, 1 µM came out at 98% and the viability at 48 h, 3 µM amounted to 104%. Besides, the AC50 in data set [1] (read-out: AC50) stood at 2990 nM.

For `CCCCC(O)(c1ccc(CC)cc1)C(CN1CCOCC1)c1ccccc1` (stereo not drawn) [MLS001198887-01], in “in vitro” (setting [2]), the viability at 48 h, 1 µM stood at 88% and the viability at 48 h, 3 µM came out at 85%. Further, in data set [1] (read-out: AC50), the AC50 was found to be 4730 nM.

As to `Cc1cc(NC(=O)CN2CCN(c3ccc(O)cc3)CC2)no1` [MLS000565196-01], in “in vitro” (setting [2]), the viability at 48 h, 1 µM turned out to be 104% and the viability at 48 h, 3 µM amounted to 107%. The AC50 in data set [1] (read-out: AC50) was determined as 4730 nM.

`CCSc1nc2sc3c(c2c(=O)n1-c1ccccc1)CCN(C)C3` [MLS001212076-01]: in the data set “in vitro” (setting [2]), the viability at 48 h, 1 µM amounted to 104% and the viability at 48 h, 3 µM is 103%. For the same compound, in data set [1] (read-out: AC50), the AC50 was determined as 6680 nM.

Take `CCOC(=O)c1c(CNc2ccncc2)n(C)c2cc(Br)c(O)cc12` [MLS000714612-01]: in the data set “in vitro” (setting [2]), the viability at 48 h, 1 µM amounted to 90% and the viability at 48 h, 3 µM was found to be 86%. Also, the AC50 in data set [1] (read-out: AC50) came to 2660 nM.

Regarding `Cc1nc(N2CCC(C)CC2)c2c(C)c(C(=O)Nc3ccc(C(F)(F)F)cc3)sc2n1` [MLS000682669-01], in “in vitro” (setting [2]), the viability at 48 h, 1 µM was 108% and the viability at 48 h, 3 µM amounted to 99%. In data set [1] (read-out: AC50), the AC50 was found to be 7500 nM.

Take `CCN1CCN(Cc2ccc(NC(=O)c3cc(NC(=O)c4nccnc4N)cc(OC)c3)cc2C(F)(F)F)CC1` [MLS000911568-01]: in “in vitro” (setting [2]), the viability at 48 h, 1 µM came to 89% and the viability at 48 h, 3 µM stood at 87%. Also, the AC50 in data set [1] (read-out: AC50) is 4730 nM.

As for `Clc1ccc(-c2nnc(N3CCCC3)nn2)cc1` [MLS000038815-01], the viability at 66 h in “in vitro” (setting [2]) is 102%. Moreover, in data set [1] (read-out: AC50), the AC50 worked out at 531 nM.

For `Cc1ccccc1Nc1cc(C)c2c(O)cccc2n1` [MLS000586981-01], in the data set “in vitro” (setting [2]), the viability at 48 h, 1 µM was 105% and the viability at 48 h, 3 µM came to 100%. For the same compound, the AC50 in data set [1] (read-out: AC50) came out at 5310 nM.

`CCCCCSc1cc(O)c(C(CNC)C(C)C)cc1OC` (stereo not drawn) [MLS000704380-01]: in “in vitro”, the viability at 48 h, 1 µM is 106% and the viability at 48 h, 3 µM was 101%. Also, the AC50 in data set [1] (read-out: AC50) turned out to be 168 nM.

As to `O=c1c(=Cc2ccco2)sc2n1CN(c1cccc(Br)c1)CN=2` [MLS000535198-01], in the data set “in vitro” (setting [2]), the viability at 48 h, 1 µM came to 103% and the viability at 48 h, 3 µM stood at 103%. Besides, the AC50 in data set [1] (read-out: AC50) turned out to be 9440 nM.

For the compound `CCc1cccc(-n2c(=O)c3cccnc3n2CC(=O)NCc2ccc(C)cc2)c1` [NCGC00128446-01], the viability in the data set “in vitro” came to 83.3%. The compound further returned an AC50 in data set [1] of 1680 nM.

On to `CCCCN(C(=O)c1ccco1)c1nnc(-c2cc(OC)c(OC)c(OC)c2)s1` [MLS000075381-01], for which the viability at 66 h in “in vitro” (setting [2]) worked out at 104%. Moreover, the AC50 in data set [1] (read-out: AC50) worked out at 2990 nM.

With `COc1ccc(CN2CCCC(N3CCc4ccccc4C3)C2)c(O)c1` (stereo not drawn) [MLS001001490-01], in “in vitro” (setting [2]), the viability at 48 h, 1 µM was determined as 84% and the viability at 48 h, 3 µM came to 89%. The AC50 in data set [1] (read-out: AC50) is 2990 nM.

With `CN1C2CCC1/C(=C\c1ccccc1)C(=O)/C2=C\c1ccccc1` [MLS000551165-01], the viability at 66 h in the data set “in vitro” is 95.8%. Further, the AC50 in data set [1] (read-out: AC50) is 2110 nM.

On to `CCCn1cc(SCC(=O)NCc2ccco2)c2ccccc21` [MLS000095681-01], for which, in “in vitro” (setting [2]), the viability at 48 h, 1 µM turned out to be 90% and the viability at 48 h, 3 µM stood at 87%. Further, in data set [1] (read-out: AC50), the AC50 was 8410 nM.

Consider `Nc1nonc1-n1nnc(C(=O)N/N=C/c2cccs2)c1-c1ccc2c(c1)OCO2` [MLS001142649-01], for which, in the data set “in vitro” (setting [2]), the viability at 48 h, 1 µM came to 92% and the viability at 48 h, 3 µM was determined as 91%. Besides, the AC50 in data set [1] (read-out: AC50) is 1680 nM.
